Experimental data taken from US12649748B2, “Wee1 inhibitor and use thereof” (JIANGSU TASLY DIYI PHARMACEUTICAL CO., LTD., priority 2021, dated 2026).
Values after ≈ are worked out from the molar mass of the structure shown. Where two headings read alike, the source gives them in different places.

Assays:
Solubility test = assay type: physicochemical; settings: aqueous buffer, thermodynamic from solid; buffer solution, shaken at constant temperature 24 h
Description: The compound was placed in a buffer solution and shaken at constant temperature for 24 h. […] Chromatographic conditions: C18 column, mobile phase A: 0.02 M potassium dihydrogen phosphate:acetonitrile=90:10, mobile phase B: acetonitrile; V: 1.0 ml/min, T: 35° C., λ: 210 nm.

H1299 cells = test: Anti-proliferative effect by Cell Titer-Glo, H1299; assay type: cell-based; settings: Homo sapiens, NCI-H1299, 72 h, read-out: IC50 measured value H1299
Description: (§1) Compound solutions of different concentration gradients were prepared. DMSO was dissolved to a concentration of 10 mM test compound and 10 mM reference compound AZD1775, and the compounds were serially diluted in culture medium for a total of 9 dose points, with 2 parallel replicates set at each concentration. The cell growth group without compound was used as a positive control (maximum signal control) and the medium was used as a negative control (minimum signal control), while ensuring that the final level of DMSO in each reaction well was 0.2%. After removing the medium from the 384-well plate, 25 ul of the configured compound at different concentrations was transferred into the well plate and the compound and cells were incubated in the cell incubator at 37° C. with 5% CO2 for 3 days.
(§2) The 384-well plates were removed from the cell incubator and allowed to equilibrate for 1 h to room temperature. 25 ul of Cell Titer-Glo assay was added to each well, lysed on a shaker for 2 min and then read out (Luminescence) using a BMG PHERAStar after 10 min incubation. Calculate the inhibition rate from the luminescence signal: first calculate the average of the positive control (maximum signal control) and the negative control (minimum signal control).
(§3) [formula] to calculate the rate of inhibition of the cells by different concentrations of the compounds. The IC50 of the compound on cell activity inhibition was calculated by fitting a log(inhibitor) vs. response-Variable slope model to GraphPad Prism 6. The fitted equation was: Y=Bottom+(Top−Bottom)/(1+10^((Log IC50−X)*HillSlope)), where Y represents the rate of inhibition and X represents the concentration of the known compound after Log.

Wee1 protein = target: T1, Wee1 protein (Homo sapiens, UniProt P30291); test: Binding of compound to Wee1 protein and Tracer 178 by TR-FRET; settings: inhibitory activity against Wee1 kinase, read-out: IC50 measured value
T1 construct: purchased Thermo Fisher PR7373A
T1 sequence (P30291 whole entry): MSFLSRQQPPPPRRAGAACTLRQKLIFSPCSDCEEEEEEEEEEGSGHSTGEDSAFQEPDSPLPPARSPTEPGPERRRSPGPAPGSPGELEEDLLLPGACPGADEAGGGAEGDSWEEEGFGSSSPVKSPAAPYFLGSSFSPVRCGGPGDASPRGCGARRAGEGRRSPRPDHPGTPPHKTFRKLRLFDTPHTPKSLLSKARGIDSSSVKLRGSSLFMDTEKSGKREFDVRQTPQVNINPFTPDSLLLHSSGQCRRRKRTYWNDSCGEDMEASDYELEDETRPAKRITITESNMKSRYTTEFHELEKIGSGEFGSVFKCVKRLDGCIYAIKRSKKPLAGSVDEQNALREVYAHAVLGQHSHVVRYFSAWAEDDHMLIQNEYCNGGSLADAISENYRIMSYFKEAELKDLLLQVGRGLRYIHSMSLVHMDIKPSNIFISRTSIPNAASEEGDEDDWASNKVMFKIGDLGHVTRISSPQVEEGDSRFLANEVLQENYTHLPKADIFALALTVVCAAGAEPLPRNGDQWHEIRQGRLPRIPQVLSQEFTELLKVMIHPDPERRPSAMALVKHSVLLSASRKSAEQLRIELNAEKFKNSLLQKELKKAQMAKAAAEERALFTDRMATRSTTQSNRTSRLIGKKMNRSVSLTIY
Description: First, solutions of the compounds in different concentration gradients were prepared. […] DMSO was added as a positive control (maximal signal control) and a negative control (minimal signal control) and a final level of 0.25% DMSO was ensured in each reaction well.
WEE1 (Thermo Fisher, Cat #PR7373A) protein in buffer (50 mM Hepes pH 7.5, 10 mM MgCl2, 1 mM EGTA, 0.01% Brij-35) at 15 nM) in different concentrations of compound, and Tracer 178 (Invitrogen, PV5593) and MAb Anti-GST-Eu crypate (Cisbio, 61GSTKLA) were added to 384-well plates (Corning, cat #3574), centrifuged at 1000 rpm for 1 min and the 384-well plates were incubated in a constant temperature shaker for 60 min at 25° C. and 300 rpm. Tracer 178 and MAb Anti-GST-Eu crypate were prepared in buffer (50 mM HEPES pH 7.5, 10 mM MgCl2, 1 mM EGTA, 0.01% Brij-35) with a final reaction concentration of 50 nM for Tracer 178 and a final concentration of 2 nM for MAb Anti-GST-Eu crypate, where the negative control (minimal signal control) used an equal amount of buffer in place of the protein solution.
After incubation, readings were performed using BMG PHERAStar (excitation light at 337 nm and emission light at wavelength values of 620 nm and 665 nm to read the fluorescence signal values). […] The IC50 for inhibition of enzyme activity by the compounds was then calculated using GraphPad Prism 6 and fitted with a log (inhibitor) vs. response-Variable slope mode. The fitting equation was: Y=Bottom+(Top-Bottom)/(1+10^((Log IC50−X)*HillSlope)), where Y represents the percentage of residual enzyme activity known and X represents the known concentration of compound after the logarithm.

[1] = Metabolic stability of liver microsomes in vitro (human); assay type: in vitro ADME; settings: read-out: Human T1/2/min
Description: (§4) Microsomes were taken out from the −80° C. refrigerator, rapidly melted in a 37° C. water bath and placed on ice until ready to use. The test article was diluted with DMSO to prepare a 10 mM stock solution, and then diluted with acetonitrile to a 0.5 mM secondary stock solution. The microsomes were diluted to 0.75 mg/ml using Buffer C; the secondary stock solution was then added to a final concentration of 1.5 μM of compound as working solution, based on n=2, 5 time points, 350 μL of each compound was prepared and placed on ice prior to use. NADPH was diluted with Buffer C to a working solution of 6 mM for the starter solution. An acetonitrile solution containing an internal standard was prepared as the precipitant, and Verapamil-HCl was chosen as the internal standard at a concentration of 4 ng/ml.
(§5) A round-bottom well plate was taken, noted as the reaction plate, and the prepared working solution for each compound was dispensed into the well plate according to the number of replicates and time points (0 h samples are also added to the reaction plate), 30 μL/well; the plate was incubated at 37° C. for 10 min. A separate plate with pointed bottom wells, noted as a precipitation plate, was added with 135 μL precipitant per well; 0 h samples were transferred to the plate after 10 min incubation and 15 μL of starter solution was added; the plate was placed on ice before centrifugation.
(§6) The diluted starter solution was added in sufficient quantity to the dispensing plate to facilitate the multichannel pipette aspiration operation.
(§7) The reaction was carried out on a warm incubation shaker and 15 μL of starter solution/sample is added to the plate using a multichannel pipette. The reaction was mixed with a slight shake to initiate the reaction, which was accurately timed and recorded using a timer;
(§8) After the reaction time had elapsed, all the solution in the plate was aspirated using the multichannel pipette and added to the precipitation plate to terminate the reaction at that point in time. After all reactions had been terminated, the plates were shaken for ten minutes on a plate shaker at 600 rpm to precipitate the protein. The plate was centrifuged at 4° C. for 15 minutes at maximum rpm. 80 μL of supernatant was taken, 320 μL of pure water was added and mixed for LC-MS analysis.

[2] = Metabolic stability of liver microsomes in vitro (mouse); assay type: in vitro ADME; settings: read-out: Mouse T1/2/min
Description: as §4, §5, §6, §7, §8

MIA Paca-2 cells = test: Anti-proliferative effect by Cell Titer-Glo, MIA Paca-2; assay type: cell-based; settings: Homo sapiens, read-out: IC50 measured value MIA Paca-2
Description: as §1, §2, §3

[3] = Compound pharmacokinetics in mice; assay type: in vivo; settings: male ICR mice, oral gavage 10 mg/kg, plasma; for Cmax / AUC(0-inf) / half-life: mouse; for AUC(0-inf): read-out: AUCinf—Pred; for half-life: read-out: T½ (converted)
Description: To investigate the pharmacokinetic properties of the compound in mice, six male ICR mice were given the compound by oral gavage (10 mg/kg) at the corresponding dose, and each route of administration was divided into two groups: group A mice had anticoagulated whole blood collected at 5 min, 30 min, 2 h and 8 h after administration, while group B mice had anticoagulated whole blood collected at 15 min, 1 h, 4 h and 24 h after administration, isolated plasma;
The plasma concentrations of the compounds were determined by LC-MS using a standard curve calibration method. Plasma concentration-time data were fitted to pharmacokinetic parameters using Winnolin 5.2 software.

[4] = Membrane permeability study (Caco-2); assay type: in vitro ADME; settings: human; for efflux ratio at 90 min, 10 µM: Caco-2, pH 7.4, read-out: Efflux Ration; for Papp A→B at 90 min, 10 µM / Papp B→A at 90 min, 10 µM: pH 7.4, Caco-2, 10 μM; for Papp A→B at 90 min, 10 µM: A to B; for Papp B→A at 90 min, 10 µM: B to A
Description: Caco-2 cells were purchased from the […] (Rockville, MD). The cell culture medium was modified Eagle's medium (MEM) containing 10% inactivated fetal bovine serum and 1% non-essential amino acids. Cells were inoculated on polycarbonate filter membranes (Cat no. 3396) and incubated at 37° C. in a 5% CO2 incubator.
The cells were incubated for 21-28 days after inoculation for transport experiments and the apparent permeability (Papp) of Lucifer Yellow was used to characterize and verify the compactness of the cell monolayer. A stock solution of 10 mM was prepared by dissolving the compound in DMSO and diluted using Hanks Balanced Salt Solution (HBSS, Invitrogen, Cat #14025-092) containing 25 mM HEPES (pH 7.4) to obtain the working solution. A 10 μM working solution of the compound to be tested was added to the apical side and basolateral side of Caco-2 and incubated at 37° C. for 90 min. After the incubation, dilute the samples on the apical side and basolateral side, and the concentrations of compounds on the apical and basolateral sides were detected by LC-MS/MS, and the concentrations of the compounds were quantified by standard curve.

[5] = H1299 cells, 3 days, Cell Titer-Glo
[6] = 72 h, MIA Paca-2 cells, 3 days, Cell Titer-Glo

Compound | IC50 (Wee1 protein) | IC50 (H1299 cells; [5]) | IC50 (MIA Paca-2 cells; [6]) | IC50 (H1299 cells) | also measured
CN1CCN(c2ccc(Nc3ncc4cnn(-c5cccc(C6(C#N)CC6)n5)c4n3)cc2)CC1 [Compound 3] | 0.01 to 0.1 µM |  |  | 1 to 5 µM | solubility at 24 h (Solubility test): 60 µg/mL (≈ 133 µM)
CN1CCC(c2ccc(Nc3ncc4cnn(-c5cccc(N=S(C)(C)=O)n5)c4n3)cc2)CC1 [Compound 18] | 0.001 to 0.01 µM | 1 to 5 µM | 0.1 to 1 µM |  | half-life at 1 µM [1]: > 120 min; half-life at 1 µM [2]: > 120 min
CN1CCN(c2ccc(Nc3ncc4cnn(-c5ccnc(N=S(C)(C)=O)c5)c4n3)cc2)CC1 [Compound 28] | 0.1 to 1 µM | 5 to 20 µM | 1 to 5 µM |  | Cl_pred [3]: 230 mL/min/kg; Cmax [3]: 337 ng/mL; AUC(0-inf) [3]: 743 ng·h/mL; half-life [3]: 107 min
CN1CCN(c2ccc(Nc3ncc4cnn(-c5ccc6c(c5)C(C)(O)CO6)c4n3)cc2)CC1 (stereo not drawn) [Compound 40] | 0.01 to 0.1 µM | 0.1 to 1 µM | 0.1 to 1 µM |  | Cl_pred [3]: 405 mL/min/kg; Cmax [3]: 377 ng/mL; AUC(0-inf) [3]: 493 ng·h/mL; half-life [3]: 42 min; half-life at 1 µM [2]: 20.4 min; efflux ratio at 90 min, 10 µM [4]: 0.89; Papp A→B at 90 min, 10 µM [4]: 18.6 ×10⁻⁶ cm/s; Papp B→A at 90 min, 10 µM [4]: 16.6 ×10⁻⁶ cm/s
CCN1C(=O)COc2ccc(-n3ncc4cnc(Nc5ccc(N6CCN(C)CC6)cc5)nc43)cc21 [Compound 59] | 0.01 to 0.1 µM |  |  | 0.1 to 1 µM | IC50 (MIA Paca-2 cells; MIA PaCa-2, 72 h): 0.1 to 1 µM
CCn1ncc2ccc(-n3ncc4cnc(Nc5ccc(N6CCN(C)CC6)cc5)nc43)nc21 [Compound 60] | 0.01 to 0.1 µM |  |  | 1 to 5 µM | IC50 (MIA Paca-2 cells; MIA PaCa-2, 72 h): 0.1 to 1 µM
CCN1C(=O)C2(CC2)c2ccc(-n3ncc4cnc(Nc5ccc(N6CCN(C)CC6)cc5)nc43)cc21 [Compound 61] | 0.1 to 1 µM |  |  | 5 to 20 µM | IC50 (MIA Paca-2 cells; MIA PaCa-2, 72 h): 1 to 5 µM

More lines, main results first:

IC50 (Wee1 protein) | IC50 (H1299 cells; [5]) | IC50 (MIA Paca-2 cells; [6]) | Compound | IC50 (H1299 cells) | also measured
0.01 to 0.1 µM | 0.1 to 1 µM | 0.1 to 1 µM | CCn1cnc2ccc(-n3ncc4cnc(Nc5ccc(N6CCN(C)CC6)cc5)nc43)cc21 [Compound 45] |  | half-life at 1 µM [2]: 10.3 min; efflux ratio at 90 min, 10 µM [4]: 1.79; Papp A→B at 90 min, 10 µM [4]: 4.09 ×10⁻⁶ cm/s; Papp B→A at 90 min, 10 µM [4]: 7.34 ×10⁻⁶ cm/s
0.1 to 1 µM | 1 to 5 µM | 0.1 to 1 µM | CCC1(O)CCc2ccc(-n3ncc4cnc(Nc5ccc(N6CCN(C)CC6)cc5)nc43)nc21 (stereo not drawn) [Compound 57] |  | 
0.01 to 0.1 µM | < 0.1 µM | 0.1 to 1 µM | Cc1nc2ccc(-n3ncc4cnc(Nc5ccc(N6CCN(C)CC6)cc5)nc43)cc2n1C [Compound 58] |  | 
0.1 to 1 µM | 5 to 20 µM | 1 to 5 µM | CN1CCN(c2ccc(Nc3ncc4cnn(-c5ccc6nncn6c5)c4n3)cc2)CC1 [Compound 62] |  | 
